The test addresses recombinant human GPR52 (Homo sapiens, UniProt Q9Y2T5). Put plainly: HTRF cAMP assay, GPR52 activity (Example A). It counts as cell-based. As for the experimental part:
Compounds of Formula I were assessed for their ability to modulate GPR52 activity. HTRF CAMP assays were performed using a commercially available assay kit (CAMP Gs HiRange HTRF®, CisBio). Controls and compounds were solubilized in DMSO and 62.5 nanoliters of the diluted compounds were transferred into 384-well NBS assay plates via acoustic or precision low-volume dispensing. Compounds were further diluted to 1× with the addition of 20,000 cells per well. Flp-In™—CHO cells that stably express recombinant human GPR52 were used in the assay.
Cells were harvested with cell stripper and resuspended in stimulation buffer. After thirty minutes incubation at room temperature, detection reagents were added to each well. Plates were then incubated for an additional 30 minutes at room temperature. CAMP produced by the cells during the first incubation period competes with d2-labeled CAMP for binding to an anti-cAMP monoclonal antibody labeled with europium cryptate. The measured signal was inversely proportional to the concentration of cAMP produced by the cells and this signal was quantified using a PHERAstar® multi-mode plate reader.
Dose-response curves were generated from the HTRF counts that have been transformed based on a CAMP referenced curve, and then normalized to the positive control. EC50 values were obtained using a nonlinear regression curve-fitting program. […] The Emax (Table 13) is the maximum amount of cAMP (nM) produced by incubation of the cells with 10 μM or 31.6 μM of a test compound. The compound is defined by the top plateau of the sigmoid curve fit. The curve is then normalized to a control compound, in this case 4-(3-(3-fluoro-5-(trifluoromethyl)benzyl)-5-methyl-4,5-dihydro-1H-1,2,4-triazol-1-yl)-2-methylbenzamide (Tokumaru, K., et al., “Design, synthesis, and pharmacological evaluation of 4-azolyl-benzamide derivatives as novel GPR52 agonists”, Bioorganic & Medicinal Chemistry, Volume 25, Issue 12, June 2017, pages 3098-3115), and expressed as a percentage of the Emax of that control compound.

The mark [1] stands for this setting: Flp-In-CHO cells expressing human GPR52, read-out: average EC50.
Setting [2] is: average EC50 (n=1 to 15), Flp-In-CHO cells stably expressing recombinant human GPR52, cAMP HTRF, read-out: EC50 (N=).
Where [3] appears, read: maximum cAMP at 10 μM or 31.6 μM test compound, as percentage of Emax of control compound 4-(3-(3-fluoro-5-(trifluoromethyl)benzyl)-5-methyl-4,5-dihydro-1H-1,2,4-triazol-1-yl)-2-methylbenzamide.
Setting [4] is: percentage of Emax of control compound.

Like-named read-outs stand apart in the source and are kept apart here.

recombinant human GPR52, sequence (Q9Y2T5 whole entry): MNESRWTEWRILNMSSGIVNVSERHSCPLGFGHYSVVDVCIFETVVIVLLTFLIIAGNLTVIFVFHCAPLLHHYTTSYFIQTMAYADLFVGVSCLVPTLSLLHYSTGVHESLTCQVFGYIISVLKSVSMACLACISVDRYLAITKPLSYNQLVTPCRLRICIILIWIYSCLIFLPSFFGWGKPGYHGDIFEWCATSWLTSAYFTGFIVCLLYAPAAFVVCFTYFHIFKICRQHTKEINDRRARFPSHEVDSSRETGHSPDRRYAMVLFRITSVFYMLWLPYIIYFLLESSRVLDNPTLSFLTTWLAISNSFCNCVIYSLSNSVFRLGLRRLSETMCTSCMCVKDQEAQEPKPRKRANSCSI

As to `Cc1cc(-c2ccnc(Oc3ccc4c(c3)c(C)nn4C)c2)ccc1C(N)=O`, the EC50 (comparison of position of the nitrogen in the pyridine ring relative to the oxygen linker, read-out: Activity EC50) is 2040 nM.
Take `CCc1cc(-c2cc(Oc3cnc4c(C)nn(C)c4c3)ccn2)ccc1C(N)=O` [Example 1, 4-(4-((1,3-dimethyl-1H-pyrazolo[4,3-b]pyridin-6-yl)oxy)pyridin-2-yl)-2-ethylbenzamide]: the EC50 runs as follows: under setting [1], 270 nM; under setting [2], 101 to 1000 nM. Further, the Emax runs as follows: under setting [3], 106%; under setting [4], 106%.
Consider `CCc1cc(-c2cc(Oc3ccc4cnn(C)c4c3)ccn2)ccc1C(N)=O` [Example 2, 2-ethyl-4-{4-[(1-methyl-1H-indazol-6-yl)oxy]pyridin-2-yl}benzamide], for which the concentration for a half-maximal effect (EC50) under setting [2] lay within 101 to 1000 nM. Also, the Emax under setting [3] was 98%.
Regarding `Cc1cc(-c2cc(Oc3ccc4c(C)nn(C)c4c3)ccn2)ccc1C(N)=O` [Example 4, 4-(4-((1,3-dimethyl-1H-indazol-6-yl)oxy)pyridin-2-yl)-2-methylbenzamide], the 50% effective concentration (EC50) is, setting by setting: under setting [1], 83 nM; under setting [2], 25 to 100 nM. Moreover, under setting [3], the “Emax (%)” value is 103%. Also, the Emax under setting [4] worked out at 106%.
For the compound `Cc1cc(-c2cc(Oc3ccc4c(cnn4C)c3)ccn2)ccc1C(N)=O` [Example 5, 2-methyl-4-(4-((1-methyl-1H-indazol-5-yl)oxy)pyridin-2-yl)benzamide], under setting [2], the EC50 lay in the range of 101 to 1000 nM. In addition, under setting [3], the Emax was found to be 76%.
The matching figures for `Cc1cc(-c2cc(Oc3ccc4nn(C)cc4c3)ccn2)ccc1C(N)=O` [Example 6, 2-methyl-4-(4-((2-methyl-2H-indazol-5-yl)oxy)pyridin-2-yl)benzamide]: 101 to 1000 nM and 110%.
The matching figures for `Cc1cc(-c2cc(Oc3cccc4c3cnn4C)ccn2)ccc1C(N)=O` [Example 7, 2-methyl-4-(4-((1-methyl-1H-indazol-4-yl)oxy)pyridin-2-yl)benzamide]: 1000 to 2000 nM and 68%.
Take `Cc1cc(-c2cc(Oc3ccc4ncn(C)c4c3)ccn2)ccc1C(N)=O` [Example 8, 2-methyl-4-(4-((1-methyl-1H-benzo[d]imidazol-6-yl)oxy)pyridin-2-yl)benzamide]: under setting [2], the EC50 lay in the range of 1000 to 2000 nM. Also, the maximal effect (Emax) under setting [3] stood at 68%.
In the case of `Cc1cc(-c2cccc(Oc3ccc4cnn(C)c4c3)n2)ccc1C(N)=O` [Example 9, 2-methyl-4-(6-((1-methyl-1H-indazol-6-yl)oxy)pyridin-2-yl)benzamide], the concentration giving a half-maximal response (EC50) under setting [2] was 1000 to 2000 nM. Under setting [3], the Emax worked out at 91%.
As to `Cc1cc(-c2cncc(Oc3ccc4nn(C)cc4c3)n2)ccc1C(N)=O` [Example 10, 2-methyl-4-(6-((2-methyl-2H-indazol-5-yl)oxy)pyrazin-2-yl)benzamide], under setting [2], the concentration for a half-maximal effect (EC50) was in the range of 101 to 1000 nM. The Emax under setting [3] turned out to be 106%.
In the same order, the values of `Cc1cc(-c2cncc(Oc3ccc4cnn(C)c4c3)n2)ccc1C(N)=O` [Example 11, 2-methyl-4-(6-((1-methyl-1H-indazol-6-yl)oxy)pyrazin-2-yl)benzamide] are 101 to 1000 nM and 101%.
The matching figures for `Cc1cc(-c2cc(Oc3cnc4cnn(C)c4c3)ccn2)ccc1C(N)=O` [Example 12, 2-methyl-4-(4-((1-methyl-1H-pyrazolo[4,3-b]pyridin-6-yl)oxy)pyridin-2-yl)benzamide]: 101 to 1000 nM and 103%.
For the compound `Cc1cc(-c2cc(Oc3ccn4nccc4c3)ccn2)ccc1C(N)=O` [Example 13, 2-methyl-4-(4-(pyrazolo[1,5-a]pyridin-5-yloxy)pyridin-2-yl)benzamide], under setting [2], the EC50 was 101 to 1000 nM. Besides, under setting [3], the Emax was found to be 97%.
Consider `Cc1cc(-c2nccc(Oc3ccc4cnn(C)c4c3)n2)ccc1C(N)=O` [Example 14, 2-methyl-4-(4-((1-methyl-1H-indazol-6-yl)oxy)pyrimidin-2-yl)benzamide], for which, under setting [2], the EC50 was 101 to 1000 nM. Further, the maximal response (Emax) under setting [3] worked out at 93%.
In the same order, the values of `Cc1cc(-c2cc(N)nc(Oc3ccc4nn(C)cc4c3)c2)ccc1C(N)=O` [Example 15, 4-(2-amino-6-((2-methyl-2H-indazol-5-yl)oxy)pyridin-4-yl)-2-methylbenzamide] are 1000 to 2000 nM and 72%.
In the same order, the values of `CCc1cc(-c2cc(Oc3cnc4c(C)nn(C)c4c3)cc(N)n2)ccc1C(N)=O` [Example 16, 4-(6-amino-4-((1,3-dimethyl-1H-pyrazolo[4,3-b]pyridin-6-yl)oxy)pyridin-2-yl)-2-ethylbenzamide] are 101 to 1000 nM and 107%.
In the same order, the values of `CCc1cc(-c2cc(Oc3cnc4cnn(C)c4c3)cc(N)n2)ccc1C(N)=O` [Example 17, 4-(6-amino-4-((1-methyl-1H-pyrazolo[4,3-b]pyridin-6-yl)oxy)pyridin-2-yl)-2-ethylbenzamide] are 101 to 1000 nM and 102%.
`CCc1cc(-c2cc(Oc3ccc4cnn(C)c4c3)cc(N)n2)ccc1C(N)=O` [Example 18, 4-(6-amino-4-((1-methyl-1H-indazol-6-yl)oxy)pyridin-2-yl)-2-ethylbenzamide]: the half-maximal effective concentration (EC50) under setting [2] lay in the range of 101 to 1000 nM. Moreover, under setting [3], the Emax came out at 107%.
As for `Cc1cc(-c2cc(Oc3ccc4c(C)nn(C)c4c3)cc(N)n2)ccc1C(N)=O` [Example 19, 4-(6-amino-4-((1,3-dimethyl-1H-indazol-6-yl)oxy)pyridin-2-yl)-2-methylbenzamide], the EC50 under setting [2] is 101 to 1000 nM. Further, the Emax under setting [3] was determined as 90%.
On to `CCc1cc(-c2cc(Oc3cc(F)c4cnn(C)c4c3)cc(N)n2)ccc1C(N)=O` [Example 20, 4-(6-amino-4-((4-fluoro-1-methyl-1H-indazol-6-yl)oxy)pyridin-2-yl)-2-ethylbenzamide], for which the concentration giving a half-maximal response (EC50) under setting [2] lay within 101 to 1000 nM. Under setting [3], the maximum response (Emax) turned out to be 111%.
Take `Cc1cc(-c2cc(Oc3ccc4cnn(C)c4c3)cc(N)n2)ccc1C(N)=O` [Example 21, 4-(6-amino-4-((1-methyl-1H-indazol-6-yl)oxy)pyridin-2-yl)-2-methylbenzamide]: the 50% effective concentration (EC50) under setting [2] is 101 to 1000 nM. Under setting [3], the maximum response (Emax) is 99%.
On to `CCc1cc(-c2cc(Oc3cnc4c(c3)c(C)nn4C)cc(N)n2)ccc1C(N)=O` [Example 22, 4-(6-amino-4-((1,3-dimethyl-1H-pyrazolo[3,4-b]pyridin-5-yl)oxy)pyridin-2-yl)-2-ethylbenzamide], for which the EC50 under setting [2] fell in the range of 101 to 1000 nM. In addition, the Emax under setting [3] came to 123%.
In the same order, the values of `Cc1cc(-c2cc(Oc3cnc4c(c3)c(C)nn4C)cc(N)n2)ccc1C(N)=O` [Example 23, 4-(6-amino-4-((1,3-dimethyl-1H-pyrazolo[3,4-b]pyridin-5-yl)oxy)pyridin-2-yl)-2-methylbenzamide] are 101 to 1000 nM and 107%.
In the same order, the values of `CCc1cc(-c2cc(Oc3cnc4c(c3)c(C(F)(F)F)nn4C)cc(N)n2)ccc1C(N)=O` [Example 24, 4-(6-amino-4-((1-methyl-3-(trifluoromethyl)-1H-pyrazolo[3,4-b]pyridin-5-yl)oxy)pyridin-2-yl)-2-ethylbenzamide] are 101 to 1000 nM and 110%.
As to `Cc1cc(-c2cc(Oc3ccc4c(C)nn(C)c4c3)ccn2)ccc1C(N)=O` [Example 25, 4-(4-((1,3-dimethyl-1H-indazol-6-yl)oxy)pyridin-2-yl)-2-methylbenzamide], the 50% effective concentration (EC50) runs as follows: under setting [1], 83 nM; under setting [2], 25 to 100 nM. The Emax under setting [3] was 103%.
Consider `CCc1cc(-c2cc(Oc3ccc4cnn(C)c4c3)cc3nccn23)ccc1C(N)=O` [Example 26, 2-ethyl-4-(7-((1-methyl-1H-indazol-6-yl)oxy)imidazo[1,2-a]pyridin-5-yl)benzamide], for which the EC50 under setting [2] lay in the range of 25 to 100 nM. Under setting [3], the maximal effect (Emax) came to 75%.
For the compound `CCc1cc(-c2cc(Oc3cnc4cnn(C)c4c3)ccn2)ccc1C(N)=O` [Example 27, 2-ethyl-4-(4-((1-methyl-1H-pyrazolo[4,3-b]pyridin-6-yl)oxy)pyridin-2-yl)benzamide], the concentration giving a half-maximal response (EC50) under setting [2] lay within 101 to 1000 nM. Further, the Emax under setting [3] was determined as 99%.
The matching figures for `CCc1cc(-c2cc(Oc3cnc4c(C(F)(F)F)nn(C)c4c3)ccn2)ccc1C(N)=O` [Example 29, 2-ethyl-4-(4-((1-methyl-3-(trifluoromethyl)-1H-pyrazolo[4,3-b]pyridin-6-yl)oxy)pyridin-2-yl)benzamide]: 101 to 1000 nM and 84%.
In the same order, the values of `Cc1nn(C)c2cc(Oc3ccnc(-c4ccc(C(N)=O)c(C(F)(F)F)c4)c3)cnc12` [Example 30, 4-(4-((1,3-dimethyl-1H-pyrazolo[4,3-b]pyridin-6-yl)oxy)pyridin-2-yl)-2-(trifluoromethyl)benzamide] are 1000 to 2000 nM and 87%.

As usually defined, the EC50 is the midpoint of the concentration-response curve. Broadly, the Emax is the greatest response seen or fitted, relative to the assay's reference.
